From ChEMBL document CHEMBL1125532, “Synthesis and cholinergic properties of N-aryl-2-[[[5-[(dimethylamino)methyl]-2-furanyl]methyl]thio]ethylamino analogs of ranitidine” (J Med Chem, 1992) come the findings set out here.

Structures are written as SMILES. Substitutions are numbered along the chain they refer to.

The target of assay [1] is T1, Muscarinic acetylcholine receptor M2 (Mus musculus, UniProt Q9ERZ4).
T1 sequence (Q9ERZ4 whole entry): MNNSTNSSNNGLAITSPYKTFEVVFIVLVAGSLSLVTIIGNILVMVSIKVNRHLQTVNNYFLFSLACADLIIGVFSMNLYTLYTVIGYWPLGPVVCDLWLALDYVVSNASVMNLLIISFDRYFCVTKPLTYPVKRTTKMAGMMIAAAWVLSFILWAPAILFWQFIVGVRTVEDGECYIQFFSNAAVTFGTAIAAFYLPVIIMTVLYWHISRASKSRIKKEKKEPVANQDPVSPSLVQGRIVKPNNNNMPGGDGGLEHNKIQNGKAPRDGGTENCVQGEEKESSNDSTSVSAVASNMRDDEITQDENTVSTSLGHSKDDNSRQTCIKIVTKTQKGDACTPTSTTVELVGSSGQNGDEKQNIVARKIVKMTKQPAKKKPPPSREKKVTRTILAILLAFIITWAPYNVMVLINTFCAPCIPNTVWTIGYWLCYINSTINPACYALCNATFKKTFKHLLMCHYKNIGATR
Put plainly: Ability to displace [3H]methylscopolamine ([3H]NMS) from mouse cerebral cortex. Type of assay: tissue-based.

Assay [2] addresses T1, Muscarinic acetylcholine receptor M2. The assay is described as follows: Ability to displace [3H]oxotremorine ([3H]OXO-M) from mouse cerebral cortex. Type of assay: tissue-based.
Assay [3] concerns the target T2, Muscarinic acetylcholine receptor M1 (Mus musculus, UniProt P12657).
T2 sequence (P12657 whole entry): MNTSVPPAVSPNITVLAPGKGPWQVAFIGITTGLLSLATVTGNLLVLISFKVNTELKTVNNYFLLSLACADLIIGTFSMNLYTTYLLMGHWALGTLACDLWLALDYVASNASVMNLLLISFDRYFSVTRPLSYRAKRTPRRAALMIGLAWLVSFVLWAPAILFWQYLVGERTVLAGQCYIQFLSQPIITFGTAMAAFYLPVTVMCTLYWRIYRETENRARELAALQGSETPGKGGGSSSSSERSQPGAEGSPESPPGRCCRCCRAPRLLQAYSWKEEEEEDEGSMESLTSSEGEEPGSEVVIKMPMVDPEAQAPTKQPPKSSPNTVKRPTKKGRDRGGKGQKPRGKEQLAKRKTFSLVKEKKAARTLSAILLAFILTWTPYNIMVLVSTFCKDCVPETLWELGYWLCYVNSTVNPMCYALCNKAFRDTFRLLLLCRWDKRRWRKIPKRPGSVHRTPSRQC
The assay is described as follows: biochemical.
Description: Binding affinity against mouse Muscarinic acetylcholine receptor M1 using cerebral cortex and [3H]pirenzepine

The species named for assay [4] is Rattus norvegicus.
Description: Concentration required to potentiate the contraction of isolated rat ileum produced by 1 x 10 e -7 M Ach by 20 %
In assay [5] the target is T3, Acetylcholinesterase (Homo sapiens, UniProt P22303). Put plainly: In vitro acetyl cholinesterase (AChE-I) inhibitory activity to determine its ability to reverse the cholinergic deficit characteristic of AD.
T3 sequence (P22303 whole entry): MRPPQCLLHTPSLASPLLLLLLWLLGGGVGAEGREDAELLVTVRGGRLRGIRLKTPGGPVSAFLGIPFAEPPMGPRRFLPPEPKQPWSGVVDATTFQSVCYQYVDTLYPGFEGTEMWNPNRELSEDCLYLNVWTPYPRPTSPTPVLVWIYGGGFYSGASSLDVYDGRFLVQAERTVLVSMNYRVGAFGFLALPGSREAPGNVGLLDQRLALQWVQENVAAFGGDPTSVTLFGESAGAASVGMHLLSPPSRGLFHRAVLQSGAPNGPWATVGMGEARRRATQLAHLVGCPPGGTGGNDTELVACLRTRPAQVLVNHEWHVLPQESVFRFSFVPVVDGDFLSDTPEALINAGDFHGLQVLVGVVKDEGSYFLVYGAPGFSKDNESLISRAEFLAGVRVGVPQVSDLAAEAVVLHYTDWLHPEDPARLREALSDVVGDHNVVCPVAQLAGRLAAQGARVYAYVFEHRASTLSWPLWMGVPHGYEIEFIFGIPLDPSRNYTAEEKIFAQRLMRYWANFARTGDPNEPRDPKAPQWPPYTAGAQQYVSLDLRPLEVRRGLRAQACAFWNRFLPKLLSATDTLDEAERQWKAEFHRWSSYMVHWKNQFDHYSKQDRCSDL
The target of assay [6] is Cholinesterase (Homo sapiens, UniProt P06276).
Cholinesterase, sequence (P06276 whole entry): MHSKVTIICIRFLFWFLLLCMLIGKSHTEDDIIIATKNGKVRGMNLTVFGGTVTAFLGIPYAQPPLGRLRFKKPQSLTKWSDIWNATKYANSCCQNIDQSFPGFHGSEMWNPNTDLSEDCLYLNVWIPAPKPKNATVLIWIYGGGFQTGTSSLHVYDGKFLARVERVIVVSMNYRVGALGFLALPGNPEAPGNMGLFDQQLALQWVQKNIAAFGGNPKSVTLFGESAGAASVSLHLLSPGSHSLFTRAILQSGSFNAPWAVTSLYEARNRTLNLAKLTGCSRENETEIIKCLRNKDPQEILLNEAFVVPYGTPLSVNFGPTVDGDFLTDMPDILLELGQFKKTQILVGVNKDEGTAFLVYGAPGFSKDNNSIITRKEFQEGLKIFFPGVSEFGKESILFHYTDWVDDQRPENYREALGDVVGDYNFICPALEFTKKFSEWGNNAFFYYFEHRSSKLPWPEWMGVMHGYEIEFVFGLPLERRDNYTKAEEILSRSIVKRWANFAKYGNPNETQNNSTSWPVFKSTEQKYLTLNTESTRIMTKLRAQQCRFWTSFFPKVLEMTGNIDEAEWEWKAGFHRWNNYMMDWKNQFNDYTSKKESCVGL
Description: In vitro inhibition of human butryl cholinesterase.
Assay [7] concerns Mus musculus. The assay is described as follows: Effect on brain acetylcholine concentration in mice after intraperitoneal administration of 60% lethal dose (102 mg/kg). Type of assay: functional.
For assay [8], the system named is Mus musculus. Put plainly: Effect on brain acetylcholine concentration in mice after intraperitoneal administration of 40% lethal dose (68 mg/kg). Format: functional.
Assay [9] has as its target T3, Acetylcholinesterase.
Description: In vitro inhibition of human acetylcholinesterase.
In assay [10] the test system is Mus musculus. Put plainly: Effect on brain acetylcholine concentration in mice after intraperitoneal administration of 80% lethal dose (140 mg/kg). Format: functional.
Assay [11] has as its target T4, Muscarinic acetylcholine receptor M2 (Rattus norvegicus, UniProt P10980).
T4 sequence (P10980 whole entry): T1 sequence (Q9ERZ4 whole entry) with G270V, K316R, R321K, T331A, A336V
Description: Inhibition of [3H]N-methylscopolamine to rat muscarinic acetylcholine receptor M2 from heart tissue

Assay [12] deals with T1, Muscarinic acetylcholine receptor M2. Put plainly: biochemical.
Assay [13] addresses T2, Muscarinic acetylcholine receptor M1. Put plainly: biochemical. The source holds these as a separate data set.
Description: Binding affinity against mouse muscarinic acetylcholine receptor M1 using cerebral cortex and [3H]pirenzepine
Assay [14] deals with T1, Muscarinic acetylcholine receptor M2. The assay is described as follows: biochemical. This is another data set of the same source.
The species named for assay [15] is Rattus norvegicus. Put plainly: Ratio of IC50 (muscarinic acetylcholine receptor M2) to IC50 (muscarinic acetylcholine receptor M1).
Assay [16] concerns the target Cholinesterases; ACHE & BCHE (Homo sapiens) (UniProt P06276+P22303). Put plainly: Ratio of IC50(BChE-I) to IC50(AChE-I). Type of assay: protein assay.

Cholinesterases; ACHE & BCHE (Homo sapiens), sequence (P06276 whole entry, looked up): as the sequence (P06276 whole entry) above
Cholinesterases; ACHE & BCHE (Homo sapiens), sequence (P22303 whole entry, looked up): as the sequence (P22303 whole entry) above

A word on the Ki: it is the dissociation constant of the complex between target and ligand, obtained from inhibition or displacement. A higher Ki goes with a looser hold on the target. As for `C[N+](C)(C)CCOC(N)=O` [CARBACHOL], the results for the Ki in assay [1] and in [2] were 66000 nM and 8 nM, respectively.

Broadly, the IC50 is the concentration that inhibits the measured activity by half. As for `CN(C)Cc1ccc(CSCCNc2nnccc2[N+](=O)[O-])o1`, the IC50 was found to be 970 nM in assay [3] and 470 nM in assay [5]. The same compound registered an Ileal activity in assay [4] of less than 0.1 µM.

With `CN(C)Cc1ccc(CSCCNc2ccc([N+](=O)[O-])cc2[N+](=O)[O-])o1`, the 50% inhibitory concentration (IC50) turned out to be 1800 nM in [6], 200 nM in assay [9], 5700 nM in assay [11] and 1400 nM in assay [13]. Also, the “% of control” value was determined as 120.4% in assay [7], 110.8% in assay [8] and 128.4% in [10]. In addition, the Ileal activity in assay [4] is less than 0.02 µM. Besides, the inhibition constant Ki in assay [12] amounted to 12000 nM; in assay [14], 870 nM. The figures for the Ratio in [15] and in assay [16] were 4.1 and 9.2, respectively.
